Converted amounts (≈) assume the structure as drawn.
Tests used:
[1] = Aqueous solubility of the compound at 125 ug/ml measured after 24 hrs at pH 6.8 by LC-UV analysis; format: physicochemical; settings: for solubility: buffer, pH 6.8, 24 h, dose 125 µg/ml; for solubility at 24 h: aqueous medium, pH 6.8, dose 125 µg/ml
[2] = Metabolic stability of the compound in rat liver microsomes at 1 umol/L by HPLC-MS/MS analysis; format: ADME, Microsome; settings: dose 1 µmol/L, read-out: Stability
[3] = Aqueous solubility of the compound at 125 ug/ml measured after 24 hrs at pH 4.5 by LC-UV analysis; format: physicochemical; settings: for solubility: buffer, pH 4.5, 24 h, dose 125 µg/ml; for solubility at 24 h: aqueous medium, pH 4.5, dose 125 µg/ml
[4] = Metabolic stability of the compound in mouse liver microsomes at 1 umol/L by HPLC-MS/MS analysis; format: ADME, Microsome; settings: dose 1 µmol/L, read-out: Stability
[5] = Metabolic stability of the compound in human liver microsomes at 1 umol/L by HPLC-MS/MS analysis; format: ADME, Microsome; settings: dose 1 µmol/L, read-out: Stability
[6] = Stability of the compound in 1:1 acetonitrile/water at 125 ug/ml measured after 24 hrs by LC-UV analysis; format: physicochemical; settings: buffer, at 125 µg/mL

SMILES | solubility [1] [µM] | remaining at 1 µM [2] [%] | solubility [3] [µM] | remaining at 1 µM [4] [%] | remaining at 1 µM [5] [%] | solubility at 24 h [1] [µg/mL] | solubility at 24 h [3] [µg/mL] | Stability [6]
Cc1sc2c(c1C)C(c1ccc(Cl)cc1)=N[C@@H](CC(=O)N1CCC(c3ccc4c(c3)CN(C3CCC(=O)NC3=O)C4=O)CC1)c1nnc(C)n1-2 (stereo partly specified) |  | 34 |  | 51 | 67 | 26 (≈ 36.6 µM) | 36 (≈ 50.7 µM) | 
Cc1sc2c(c1C)C(c1ccc(Cl)cc1)=N[C@@H](CC(=O)NCCCCCCNc1ccc(Cc3ccc4c(c3)CN(C3CCC(=O)NC3=O)C4=O)cc1)c1nnc(C)n1-2 (stereo partly specified) | < 1 | 66 |  | 83 | > 88 |  | 3 (≈ 3.61 µM) | 
Cc1sc2c(c1C)C(c1ccc(Cl)cc1)=N[C@@H](CC(=O)NCCCCCNc1ccc(Cc3ccc4c(c3)CN(C3CCC(=O)NC3=O)C4=O)cc1)c1nnc(C)n1-2 (stereo partly specified) | < 1 | 58 |  | 76 | > 88 |  | 6 (≈ 7.34 µM) | 
Cc1sc2c(c1C)C(c1ccc(Cl)cc1)=N[C@@H](CC(=O)Nc1ccc(Cc3ccc4c(c3)CN(C3CCC(=O)NC3=O)C4=O)cc1)c1nnc(C)n1-2 (stereo partly specified) | < 1 | 64 | < 1 | 25 | 37 |  |  | 
Cc1sc2c(c1C)C(c1ccc(Cl)cc1)=N[C@@H](CC(=O)NCCCNc1ccc(Cc3ccc4c(c3)CN(C3CCC(=O)NC3=O)C4=O)cc1)c1nnc(C)n1-2 (stereo partly specified) |  | 48 |  | 70 | > 88 | 4 (≈ 5.07 µM) | 14 (≈ 17.7 µM) | 
Cc1sc2c(c1C)C(c1ccc(Cl)cc1)=N[C@@H](CC(=O)NCCN1CCC3(CCC(c4ccc5c(c4)CN(C4CCC(=O)NC4=O)C5=O)CC3)CC1)c1nnc(C)n1-2 (stereo partly specified) |  | 33 | > 190 | 44 | 56 | 161 (≈ 196 µM) |  | 
Cc1sc2c(c1C)C(c1ccc(Cl)cc1)=N[C@@H](CC(=O)NCCNc1ccc(Cc3ccc4c(c3)CN(C3CCC(=O)NC3=O)C4=O)cc1)c1nnc(C)n1-2 (stereo partly specified) |  | 42 |  | 55 | 86 | 1 (≈ 1.29 µM) | 3 (≈ 3.87 µM) | 
Cc1sc2c(c1C)C(c1ccc(Cl)cc1)=N[C@@H](CC(=O)NCCCCCCN1CCC(c3ccc4c(c3)CN(C3CCC(=O)NC3=O)C4=O)CC1)c1nnc(C)n1-2 (stereo partly specified) | > 182 | < 23 | > 197 | < 24 | 53 |  |  | 
Cc1sc2c(c1C)C(c1ccc(Cl)cc1)=N[C@@H](CC(=O)NCCCCNc1ccc(Cc3ccc4c(c3)CN(C3CCC(=O)NC3=O)C4=O)cc1)c1nnc(C)n1-2 (stereo partly specified) | < 1 | 62 |  | 77 | > 88 |  | 4 (≈ 4.98 µM) | 

The remaining lines, values ahead:

solubility [1] [µM] | remaining at 1 µM [2] [%] | solubility [3] [µM] | remaining at 1 µM [4] [%] | remaining at 1 µM [5] [%] | solubility at 24 h [1] [µg/mL] | solubility at 24 h [3] [µg/mL] | Stability [6] | SMILES
> 178 | < 23 | > 191 | 27 | 54 |  |  |  | Cc1sc2c(c1C)C(c1ccc(Cl)cc1)=N[C@@H](CC(=O)NCCCCCN1CCC(c3ccc4c(c3)CN(C3CCC(=O)NC3=O)C4=O)CC1)c1nnc(C)n1-2 (stereo partly specified)
> 175 | < 23 | > 185 | 27 | 34 |  |  |  | Cc1sc2c(c1C)C(c1ccc(Cl)cc1)=N[C@@H](CC(=O)NCCCN1CCC(c3ccc4c(c3)CN(C3CCC(=O)NC3=O)C4=O)CC1)c1nnc(C)n1-2 (stereo partly specified)
> 174 | < 23 | > 188 | 25 | 41 |  |  | Unstable | Cc1sc2c(c1C)C(c1ccc(Cl)cc1)=N[C@@H](CC(=O)NCCN1CC(N3CCC(c4ccc5c(c4)CN(C4CCC(=O)NC4=O)C5=O)CC3)C1)c1nnc(C)n1-2 (stereo partly specified)
> 175 | < 23 | > 189 | < 24 | 66 |  |  |  | Cc1sc2c(c1C)C(c1ccc(Cl)cc1)=N[C@@H](CC(=O)NCCCCN1CCC(c3ccc4c(c3)CN(C3CCC(=O)NC3=O)C4=O)CC1)c1nnc(C)n1-2 (stereo partly specified)
 | < 23 | > 190 | 33 | 60 | 101 (≈ 127 µM) |  |  | Cc1sc2c(c1C)C(c1ccc(Cl)cc1)=N[C@@H](CC(=O)NCCN1CC3(CCC(c4ccc5c(c4)CN(C4CCC(=O)NC4=O)C5=O)CC3)C1)c1nnc(C)n1-2 (stereo partly specified)
> 162 | 40 | > 177 | 25 | 68 |  |  |  | Cc1sc2c(c1C)C(c1ccc(Cl)cc1)=N[C@@H](CC(=O)NCCN1CCC(c3ccc4c(c3)CN(C3CCC(=O)NC3=O)C4=O)CC1)c1nnc(C)n1-2 (stereo partly specified)

From ChEMBL document CHEMBL5376000, “One-Pot Synthesis of Cereblon Proteolysis Targeting Chimeras via Photoinduced C(sp2)-C(sp3) Cross Coupling and Amide Formation for Proteolysis Targeting Chimera Library Synthesis” (J Med Chem, 2023)
